# Test results published in US20050020576A1, “Kappa agonist compounds and pharmaceutical formulations thereof” (priority 1996, published 2005).
# Where a name gives a salt, the structure may show the parent alone.
# Target: cloned human kappa receptor (Homo sapiens, UniProt P41145)
# Experiment: biochemical
# Assay type: binding
# Conditions: Ki (nM) [3H]-Diprenorphin κ
# Sequence of cloned human kappa receptor (P41145 whole entry): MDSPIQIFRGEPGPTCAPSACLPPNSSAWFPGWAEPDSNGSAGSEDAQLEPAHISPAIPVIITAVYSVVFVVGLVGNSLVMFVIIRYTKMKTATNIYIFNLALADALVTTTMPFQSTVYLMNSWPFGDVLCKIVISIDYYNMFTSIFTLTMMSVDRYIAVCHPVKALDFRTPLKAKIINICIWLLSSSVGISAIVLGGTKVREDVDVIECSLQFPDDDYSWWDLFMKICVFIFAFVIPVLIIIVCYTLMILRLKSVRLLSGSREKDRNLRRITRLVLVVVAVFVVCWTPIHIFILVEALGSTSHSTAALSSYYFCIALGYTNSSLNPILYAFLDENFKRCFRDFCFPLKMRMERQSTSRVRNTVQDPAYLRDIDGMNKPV
row,Compound,Ki
1,"CN(C(=O)Cc1ccccc1NS(C)(=O)=O)[C@H](CN1CCCC1)c1cccc(NS(C)(=O)=O)c1 [Example 3pp, 2-(2-Methanesulfonamidophenyl)-N-methyl-N-[(1S)-1-(3-methanesulfon-amidophenyl)-2-(1-pyrrolidinyl)ethyl]acetamide Hydrochloride]",4.6 nM
2,"COc1cc(CC(=O)N(C)[C@H](CN2CCCC2)c2ccccc2)c(S(=O)(=O)N(C)Cc2ccccc2)cc1OC [Example 3xx, 2-(2-N-Benzyl-2-N-methylsulfamoyl-3,4-dimethoxyphenyl)-N-methyl-N-[(1S)-1-phenyl-2-(1-pyrrolidinyl)ethyl]acetamide hydrochloride]",0.83 nM

# Same assay, conditions: Ki, nM 3H-Diprenorphin
row,Compound,Ki
1,"COC(=O)N1CCN(C(=O)Cc2ccc(C(F)(F)F)cc2N(S(C)(=O)=O)S(C)(=O)=O)C(CN2CCCC2)C1 (racemic) [Example 1b, Methyl-4-[(2-[N,N-bis-methylsulfonamido]-4-trifluoromethyphenyl)acetyl]-3-(R,S)-[(1-pyrrolidinyl)-methyl]-1-piperazinecarboxylate dihydrochloride]",7 nM

# Same assay, conditions: read-out: Ki (nM) [3H]-Diprenorphin κ
row,Compound,Ki
1,"CN(C(=O)Cc1ccccc1NC(=O)/C=C\C(=O)O)[C@H](CN1CCCC1)c1ccccc1 [Example 3aa, (Z)-4-[2-(2-Aminophenyl)-N-methyl-N-[(1S)-1-phenyl)-2-(1-pyrrolidinyl]-ethyl]acetamido]4-oxo-2-butenoic acid hemimaleate]",5280 nM

# System: not given
# Experiment: not given
# Conditions: not given
row,Compound,melting point
1,"Cc1ccc(S(=O)(=O)N2CCN(C(=O)Cc3ccc(Cl)c(Cl)c3)[C@H](CN3CCCC3)C2)cc1 (as salt: hydrochloride) [(R-3l), (R)-4-(4-Methyphenylsulfonyl)-1-[(3,4-dichlorophenyl)acetyl]-2-[(1-Pyrrolidinyl)methyl]-piperazine hydrochloride]",240 °C (dec.)
2,"COc1cccc(C(CN2CCCC2)N(C)C(=O)Cc2ccccc2NS(C)(=O)=O)c1 (racemic) (as salt: sulfonic acid salt) [Example 3uu, (R,S)-1-[2-(Methanesulfonylamino)phenyl-N-methylacetamido]-1-(3-methoxyphenyl)-2-(1-pyrrolidino)-ethane, methanesulfonic acid salt]",135 °C (dec.)
3,COc1cc2c(cc1S(=O)(=O)N(C)Cc1ccccc1)[C@@H](N(C)C(=O)Cc1ccc(Cl)c(Cl)c1)[C@H](N1CCCC1)CC2 (racemic) (as salt: HCl),150 °C (dec.)
4,CN(C(=O)Cc1ccccc1[N+](=O)[O-])[C@H](CN1CCCC1)c1cccc([N+](=O)[O-])c1 (as salt: HCl),258 to 259 °C
5,"CS(=O)(=O)N1CCN(C(=O)Cc2c[nH]c3ccccc23)C(CN2CCCC2)C1 (racemic) (as salt: hydrochloride) [(R,S-8e), (R,S)-4-Methanesulfonyl-1-[(3-indolylacetyl-2-[(1-pyrrolidinyl)-methyl]piperazine hydrochloride]",219 to 221 °C
6,"COc1cc(CC(=O)N(C)[C@H](CN2CCCC2)c2ccccc2)c(S(=O)(=O)N(C)Cc2ccccc2)cc1OC (as salt: hydrochloride) [Example 3xx, 2-(2-N-Benzyl-2-N-methylsulfamoyl-3,4-dimethoxyphenyl)-N-methyl-N-[(1S)-1-phenyl-2-(1-pyrrolidinyl)ethyl]acetamide hydrochloride]",188 to 190 °C
7,"COC(=O)N1CCN(C(=O)Cc2ccccc2OC)C(CN2CCCC2)C1 (racemic) (as salt: hydrochloride) [(R,S-9e)]",120 °C
8,"COC(=O)N1CCN(C(=O)Cc2c[nH]c3ccccc23)C(CN2CCCC2)C1 (racemic) (as salt: hydrochloride) [(R,S-9c), (R,S)-Methyl 4-[(3-indolyl)acetyl]-3-[(1-pyrrolidinyl)-methyl]-1-piperazine-carboxylate hydrochloride]",143 °C
9,"CC(=O)N1CCN(C(=O)Cc2ccccc2[N+](=O)[O-])C(CN2CCCC2)C1 (racemic) (as salt: hydrochloride) [(R,S-10e), (R,S)-4-Acetyl-1-[(2-nitrophenyl)acetyl]-3-[(1-pyrrolidinyl)-methyl]piperazine-carboxylate hydrochloride]",180 °C (dec.)
10,CNS(=O)(=O)c1ccccc1CC(=O)N(C)C(CN1CCCC1)c1ccccc1F (racemic) (as salt: salt) [Example 147],232 to 234 °C
11,"CCOC(=O)/C=C/C(=O)Nc1cc(Cl)c(Cl)cc1CC(=O)N(C)[C@H](CN1CCCC1)c1ccccc1 (as salt: hydrochloride) [Example 3y, (E) Ethyl 4-[2-(2-amino-4,5-dichlorophenyl)-N-methyl-N-[(1S)-1-phenyl)-2-[1-pyrrolidinyl]ethyl]acetamido]4-oxo-2-butenoate hydrochloride]",165 to 167 °C (dec.)
12,CN(C(=O)Cc1ccccc1NS(C)(=O)=O)[C@@H]1CCCC[C@H]1N1CCCC1.Cl (racemic),229 to 231 °C
13,"CN(C(=O)Cc1cc2c(cc1S(=O)(=O)N(C)C)OCO2)[C@H](CN1CCCC1)c1ccccc1 (as salt: HCl) [Example 132, 2-[2-(N-Dimethylsulfamoyl)-4,5-methylenedioxyphenyl]-N-methyl-N-[(1S)-1-phenyl-2-[(1-pyrrolidinyl)ethyl]]acetamide]",269 to 271 °C
14,"COc1ccc(CC(=O)N(C)[C@H](CN2CC[C@H](O)C2)c2ccccc2)cc1NS(C)(=O)=O (as salt: HCl) [Example 127, 2-(3-N-Methylsulfonamido-3-amino-4-methoxyphenyl)-N-methyl-N-[(1S)-1-phenyl-2-[1-(3S)-(3-hydroxypyrrolidinyl)ethyl]]acetamide]",148 to 151 °C
15,CN(C(=O)Cc1ccc(Cl)c(Cl)c1)[C@@H]1c2cc(S(=O)(=O)N(C)Cc3ccccc3)ccc2CC[C@H]1N1CCCC1 (racemic) (as salt: HCl),251 to 254 °C
16,CCCCOC(=O)Nc1ccc(CC(=O)N(C)[C@H](CN2CCCC2)c2cccc([N+](=O)[O-])c2)cc1 (as salt: HCl),170 °C (dec.)
17,CN(C(=O)Cc1cc(Cl)c(Cl)cc1[N+](=O)[O-])[C@H](CN1CCCC1)c1cccc([N+](=O)[O-])c1 (as salt: HCl),165 °C (dec.)
18,"CN(C(=O)Cc1ccc(O)c(NS(C)(=O)=O)c1)[C@H](CN1CCCC1)c1ccccc1 (as salt: HCl) [Example 124, 2-(3-N-Methylsulfonamido-3-amino-4-hydroxyphenyl)-N-methyl-N-[(1S)-1-phenyl-2-(1-pyrrolidinyl)ethyl]acetamide]",228 to 230 °C
19,"CN(C(=O)Cc1ccccc1NS(C)(=O)=O)[C@H](CN1CC[C@H](O)C1)c1ccccc1 (as salt: HCl) [Example 125, 2-(2-N-Methylsulfonamido-2-aminophenyl)-N-methyl-N-[(1S)-1-phenyl-2-[1-(3S)-(3-hydroxypyrrolidinyl)ethyl]]acetamide]",168 to 171 °C
20,COc1cc(CC(=O)N(C)[C@H](CN2CC[C@H](O)C2)c2ccccc2)cc(OC)c1OC.Cl,230 to 232 °C
21,"COC(=O)N1CCN(C(=O)Cc2ccccc2[N+](=O)[O-])C(CN2CCCC2)C1 (racemic) (as salt: hydrochloride) [(R,S-9d), (R,S)-Methyl 4-[(2-nitrophenyl)acetyl]-3-[(1-Pyrrolidinyl)-methyl]-1-piperazine-carboxylate hydrochloride]",228 °C
22,"COc1cc(CC(=O)N(C)[C@H](CN2CCCC2)c2ccccc2)c(S(=O)(=O)N(C)Cc2ccccc2)cc1OC (as salt: HCl) [Example 148, 2-[2-(N-Benzyl-N-methylsulfamoyl)-4,5-dimethoxyphenyl]-N-methyl-N-[(1S)-1-phenyl-2-[(1-pyrrolidinyl)ethyl]]acetamide]",188 to 189 °C
23,"COC(=O)N1CCN(C(=O)Cc2ccc(S(C)(=O)=O)cc2)C(CN2CCCC2)C1 (racemic) (as salt: hydrochloride) [(R,S-9a), (R,S)-Methyl 4-[(4-methylsulfonylphenyl)acetyl]-3-[(1-pyrrolidinyl)-methyl]-1-piperazinecarboxylate hydrochloride]",225 °C
24,CN(C(=O)Cc1cc(Cl)c(Cl)cc1[N+](=O)[O-])[C@@H]1c2ccccc2C[C@H]1N1CCCC1 (racemic) (as salt: HCl),284 to 287 °C
25,CN(C(=O)C(c1ccccc1)c1ccccc1)[C@@H]1c2ccccc2C[C@H]1N1CCCC1 (racemic) (as salt: HCl),> 300 °C
26,CN(C(=O)Cc1cc(Cl)c(Cl)cc1NC(=O)/C=C\C(=O)O)[C@H]1CCCC[C@@H]1N1CCCC1 (racemic),246 to 248 °C (dec.)
27,"CN(C(=O)Cc1ccc(C(F)(F)F)cc1NS(C)(=O)=O)[C@H](CN1CC[C@H](O)C1)c1ccccc1 (as salt: HCl) [Example 126, 2-(2-N-Methylsulfonamido-2-amino-4-trifluoromethylphenyl)-N-methyl-N-[(1S)-1-phenyl-2-[1-(3S)-(3-hydroxypyrrolidinyl)ethyl]]acetamide]",178 to 181 °C
28,"CNS(=O)(=O)c1ccccc1CC(=O)N1CCN(C(=O)OC)CC1CN1CCCC1 (racemic) (as salt: hydrochloride) [Example 1e, Methyl-4-[(2-[N-methylamino)sulfamyl]phenyl)acetyl]-3-(R,S)-[(1-pyrrolidinyl)methyl]-1-piperazinecarboxylate hydrochloride]",155 to 160 °C
29,"CC(=O)N1CCN(C(=O)Cc2ccc(S(C)(=O)=O)cc2)C(CN2CCCC2)C1 (racemic) (as salt: hydrochloride) [(R,S-10a)]",145 to 147 °C
30,"CN(C(=O)Cc1ccc(C(F)(F)F)cc1NCC(=O)O)[C@H](CN1CCCC1)c1ccccc1 (as salt: hydrochloride) [Example 3b, N-[(4-Trifluoromethylphenyl)-N-methyl-N-{[1S]-1-phenyl-2-[1-pyrrolidinyl)]ethyl}acetamido]glycine hydrochloride]",228 to 230 °C (dec.)
